{"source": "patent US20050124618A1", "about": "“Methods of modulating angiogenesis and cancer cell proliferation” (priority 2003, published 2005)", "key": {"U251 human glioma cells": {"tested_on": "U251 human glioma cells", "experiment": "DNA fragmentation and TUNEL assays in U251 cells", "type": "cell-based", "conditions": "HET0016", "method": "DNA Fragmentation and TUNEL Assays: HET0016-treated cultures were washed twice with 1×PBS and incubated with lysis buffer [20 mM Tris-HCl, 10 mM EDTA, 0.3% Triton X-100]. Genomic DNA was extracted and separated on a 2% agarose gel. Separated DNA was visualized by staining gels with ethidium bromide (EtBr). […] Coverslips were washed 3× with PBS and air-dried. Samples were then fixed with a freshly prepared fixation solution (4% paraformaldehyde in PBS, pH 7.4) for 1 hr at room temperature, followed by incubation in fresh permeabilization solution (0.1% Triton X-100 in 0.1% sodium citrate) for 2 min on ice. Finally, samples were processed using in situ Cell Death Detection Kit, AP (Roche Diagnostics, Indianapolis, Ind.) according to the manufacturer's recommendations."}, "p42/p44 MAPK [1]": {"tested_on": "p42/p44 MAPK", "experiment": "Western blot of phospho-p42/p44 MAPK in U251 cells", "type": "cell-based, human", "conditions": "10 μM HET0016, 24 and 48 hr", "method": "(§1) They were then pelleted by centrifugation at 1,000 g for 5 min at 4° C. Cells were lysed by adding RIPA buffer [20 mM HEPES (pH 7.4), 100 mM NaCl, 1% Nonidet P-40, 0.1% SDS, 1% deoxycholic acid, 10% glycerol, 1 mM EDTA, 1 mM NaVO3, 50 mM NaF, and Protease Inhibitors Set 1 (Calbiochem, La Jolla, Calif.)]. Plates were then scraped and cells collected in a 1.5-ml centrifuge tube, followed by incubation on ice for 30 min. Homogenates of the cell suspension were centrifuged for 10 min at 14,000 g and 4° C.; the pellets were discarded and protein concentrations in the supernatant determined by bicinchoninic acid (BCA) protein assay.\n(§2) Typically, 20 μg of protein was separated on a 14% Tris-glycine gel (Invitrogen) and electroblotted on a PVDF membrane (Biotrace, Bothell, Wash.). Membranes were blocked for 1 h at room temperature with blocking buffer [0.2% I-Block reagent (Tropix, Bedford, Mass.), 0.1% Tween-20 in […]] before incubation with primary antibodies in blocking buffer (overnight at 4° C.). […] Both phospho-tyrosine (Y102) and phospho-serine/threonine-Pro MPM2 were detected using a 1:2000 dilution of the corresponding antibodies, whereas phospho-p44/p42MAPK and phospho-SAPK/JNK were detected using 1:1000 antibody dilutions. […]"}, "p42/p44 MAPK [2]": {"tested_on": "p42/p44 MAPK", "experiment": "Western blot of phospho-p42/p44 MAPK in 9L cells", "type": "cell-based, rat", "conditions": "10 μM HET0016; 4 hr, 24 hr", "method": "They were then pelleted by centrifugation at 1,000 g for 5 min at 4° C. The cells were lysed by adding RIPA buffer [20 mM HEPES (pH 7.4), 100 mM NaCl, 1% Nonidet P-40, 0.1% SDS, 1% deoxycholic acid, 10% glycerol, 1 mM EDTA, 1 mM NaVO3, 50 mM NaF, and protease inhibitors Set 1 (Calbiochem, La Jolla, Calif.)]. The plates were then scraped and the cells were collected in a 1.5-ml centrifuge tube, followed by incubation on ice for 30 min. The cell homogenates were centrifuged for 10 min at 14,000 g and 4° C.; the pellets were discarded and the protein concentrations in the supernatant determined by bicinchoninic acid (BCA) protein assay.\nTypically, 20 μg of protein obtained from the cell homogenates was separated on a 14% Tris-glycine gel (Invitrogen) and transferred to a PVDF membrane (Biotrace, Bothell, Wash.). The membranes were blocked for 1 hr at room temperature with blocking buffer [0.2% I-Block reagent (Tropix, Bedford, Mass.), 0.1% Tween-20 in 1×PBS] and then incubated with the primary antibodies in blocking buffer overnight at 4° C. Phospho-p42/p44 MAPK (T202/Y204)(20G11), and phospho-SAPK/JNK (T183/Y185) (98F2) monoclonal antibodies were purchased from Upstate (Waltham, Mass.). […] Both phospho-p44/p42MAPK and phospho-SAPK/JNK were detected using 1:1000 antibody dilutions. […]"}, "CYP4A11 mRNA": {"tested_on": "CYP4A11 mRNA", "experiment": "RT-PCR of CYP4A11 mRNA in U251 cultures", "type": "cell-based, human", "conditions": "10 μM HET0016 for 24 hr", "method": "EtOH-treated cultures were used as solvent controls. Briefly, total RNA was isolated with Trizol reagent (Invitrogen) and 1-2 μg RNA was used to synthesize cDNA using a First Strand synthesis kit (Invitrogen). We used PCR primers that specifically recognize CYP4A11, and β-actin-specific primers. A 1 μCi ^32P per sample was added to Platinum PCR Supermix (Invitrogen). The PCR conditions used to amplify CYP4A 11 and β-actin consisted of a precycle of 95° C for 3 min followed by 35 cycles of 95° C for 45 s, 52° C. for 30 s, and 72° C. for 2 min, with final extension at 72° C. for 10 min. The primers used were: β-actin forward primer, 5′-TGCGTGACATTAAGGAGAAG-3′ (SEQ ID NO:3); β-actin reverse primer, 5′-GCT CGT AGC TCT TCT CCA-3′ (SEQ ID NO:4); CYP4A11 forward primer, 5′-CCACCTGGACCAGAGGCCCTACACCACC-3′ (SEQ ID NO:5); CYP4A11 reverse primer, 5′-AGGATATGGGCAGACAGGAA-3′(SEQ ID NO:6). PCR products were subjected to electrophoresis in 5% bis-acrylamide gels and visualized by autoradiography."}, "[3]": {"tested_on": "phospho-tyrosine and phospho-Ser/Thr-Pro proteins", "experiment": "Western blot of tyrosine and serine/threonine protein phosphorylation in U251 cells", "type": "cell-based, human", "method": "as §1, §2"}}, "note": "“Also recorded” adds a separate entry of the source.", "data": [{"smiles": "CCCCc1ccc(N=CNO)c(C)c1", "note": "[HET0016, N-hydroxy-N′-(4-butyl-2 methylphenyl) formamidine]", "values": [{"measurement": "induction of apoptosis (DNA fragmentation and TUNEL)", "setting": "U251 human glioma cells", "value": "does not induce apoptosis"}, {"measurement": "phosphorylation of p42/p44 MAPK", "setting": "p42/p44 MAPK [1]", "value": "specifically inhibited phosphorylation"}, {"measurement": "phosphorylation of p42/p44 MAPK", "setting": "p42/p44 MAPK [2]", "value": "decreases the phosphorylation; also recorded: significantly reduced the phosphorylation; also recorded: even greater after 24 hr"}, {"measurement": "CYP4A11 transcript levels", "setting": "CYP4A11 mRNA", "value": "decreased"}, {"measurement": "serine/threonine phosphorylation of proteins", "setting": "[3]; 10 μM HET0016", "value": "no significant changes"}, {"measurement": "tyrosine phosphorylation of proteins", "setting": "[3]; 10 μM HET0016, 24 and 48 hr", "value": "inhibition which was seen at 24 and 48 hr; also recorded: significant decreases at 24 and 48 hr"}]}]}
